From patent US20040127447A1, “Augmentation of K+ channel expression using adenoviral vectors” (priority 2002, published 2004) come the findings set out here.

Like-named read-outs stand apart in the source and are kept apart here. Ends that are not written are not given here.

One experiment relates to DASMC K+ current (IK). Description: Whole-cell patch clamp of human DASMCs. Format: cell-based. The conditions noted are these: for IK at potentials close to the resting EM (-30 mV) / whole cell K+ current (IK): fresh human DASMC. The protocol: (§1) Current and voltage clamp technique, SMC isolation and pipette solutions were performed as previously described in Michelakis E D, et al. (2002) Circ Res. 90:1307-15. The response to O2, ETC inhibitors and the membrane permeable H2O2 analog, t-butyl hydrogen peroxide, were compared between DASMCs enzymatically dispersed from fresh DAs versus those maintained in tissue culture for 72 hours (either under normoxic or hypoxic conditions).
Cells were voltage clamped at a holding potential of −70 mV and currents were evoked by 10 mV steps to +50 mV using test pulses of 200 ms duration. Data were recorded and analyzed using pCLAMP 6.02 software (Axon Instruments, Foster City, Calif.). Current density was calculated (pA/pF) and plotted against voltage.

The subject of experiment [1] is human ductus arteriosus (DA) rings. Description: Human DA ring tension. The conditions noted are these: for constriction of fresh human DA rings: hypoxia, 4-AP 1-10 mM, IBTx 200 nM. The protocol: DAs excised from 26 neonates with hypoplastic left heart syndrome during the Norwood procedure (age 9±2 days, 12 female, arterial PO2˜40 mmHg) were usedDAs were transported in iced saline, maintained in hypoxia and used within 1 hour. Ring tension was recorded as previously described in Michelakis E, et al. (2000) Lancet 356:134-7.
Optimal passive ring tension was determined to be 1 g, as defined by the maximal constriction to 80 mM KCl. Tension was recorded using a force transducer connected to a MacLab A-D convertor (AD Instruments, Toronto, Canada). Tension was recorded from rings bubbled with 95% N2 and 5% CO2 in Krebs' solution, to mimic in utero conditions (PO2 40 mmHg, pH 7.4, pCO2 40-50 mmHg). Normoxia was created by bubbling with 20%O2 and 5% CO2 (balance N2) resulting in PO2 150 mmHg, pH 7.4, and PCO2 40 mmHg. Optimal resting tension was previously found to be 1000 mg, as described in Michelakis E, et al. (2000) Lancet 356:134-7. To exclude the contribution of several endothelial-derived vasoactive substances, the Krebs' solution also contained meclofenamate 17 μM to inhibit PGHS and L-N^G-nitroarginine-methylester (L-NAME) 10^−5 M to inhibit NOS.

The test system of a further experiment is DASMC EM. Description: DASMC membrane potential EM (current clamp, DiBAC4(3)). The class given is cell-based, human. The protocol: as §1
DASMC EM was measured both using patch clamp technique in current clamp mode and noninvasively with DiBAC4(3) (20 μM, bis-barbituric acid oxonol), a potentiometric dye that increases green fluorescence upon depolarization. DiBAC4 loaded cells or intact DA rings were stimulated with multi-photon excitation at 740 nm and emission was measured in the green range, 505-530 nm. DASMCs were studied after culture in normoxic or hypoxic environment for 4-5 days. The acute change in EM that occurred in response to 4-AP (10 mM), KCL (80 mM) or a switch in PO2 from 40 to 120 mmHg was measured.

The test system of another experiment is DASMC mitochondria. Description: Mitochondrial membrane potential in DASMCs (JC-1, TMRM). The class given is cell-based, human. The protocol: Mitochondrial membrane potential (Δψm) was measured using two independent and well-validated probes JC-1 and TMRM (tetramethyl rhodamine methyl ester), as previously described in Michelakis E D, et al. (2002) Circ Res. 90:1307-15.
First-passage cultured DASMC were loaded with either JC-1 (1 μM) or TMRM (20 nM) for 30 minutes (37° C.) at 37 C. Confocal images were obtained within 30 minutes using a Zeiss Axiovert 100M inverted microscope equipped with an Apochromat 40×1.2 water-corrected objective. Settings (amplifier gain, pin hole size and filter set) were kept constant between experiments.
[…]. JC-1 fluoresces in the red spectra in hyperpolarized mitochondria (high Δψm) and in the green spectra in depolarized mitochondria (low Δψm). KCl (40 mM) was used to clamp the plasmalemmal membrane potential in some experiments. […] TMRM binds the inner and outer aspects of the inner mitochondrial membrane and accumulates in the mitochondria at greater quantities than predicted by the Nernst equation. TMRM fluorescence red in proportion to ψm. A 488 nm Argon laser was used for excitation and the resultant red/green fluorescence was quantified in channels 1 and 2 using LP 560 nm and BP 505-530 nm filters, respectively. 8-bit images were collected with a laser loiter time of 4.48 μs/pixel. Pinholes yielded optical slices of 1 μm. Results are expressed as the ratio of red/green channel fluorescence.

The next experiment has as its system human DA rings. Description: H2O2 production in DA rings (AmplexRed, lucigenin chemiluminescence). Here is the method: DA rings were loaded with lucigenin 5 μM and placed in a 2 ml heated cuvette at 37° C. Counts were recorded using a Packard 1900CA Liquid Scintillation Analyzer.
H2O2, was measured using a specific, fluorometric AmplexRed® assay, as previously described in Michelakis E D, et al. (2002 ) Circ Res. 90:1307-15. An independent, specific measure of the candidate redox mediator, H2O2, was made using the one-step, fluorometric Amplex Red (Molecular Probes, Eugene, Oreg.) assay. The assay detects H2O2 using 10-acetyl-3,7-dihydroxyphenoxazine (Amplex Red reagent) a stable probe that, in the presence of horseradish peroxidase (HRP), reacts with H2O2 with a 1:1 stoichiometry to produce the highly fluorescent substance, resorufin. The assay was calibrated (FIG. 15) and found to be linear over the range of 0.25 to 5.0 μM. Freshly harvested DA rings were placed in a normoxic or a hypoxic solution containing AmplexRed and, after 20 minutes, fluorescence was recorded (excitation 530 nm, emission 590 nm), see FIG. 15.

A further experiment relates to PASMC K+ current (IK). Description: Whole-cell patch clamp of PASMCs. Format: cell-based. Particulars: normoxic-saline rat PASMCs. The source says: Fresh PASMC's were isolated from fourth division PA's by enzymatic dispersion and studied using conventional whole-cell patch-clamp technique at room temperature, as previously described in Archer S L, et al. (1998) J. Clin. Invest. 101:2319-30, and Michelakis E D, et al. (2001) Am. J. Physiol. Lung Cell Mol. Physiol. 280:L1138-47. All cells were voltage-clamped at a holding potential of −70 mV. Currents were evoked in stepwise fashion from −70 mV to +70 mV with test pulses of 200 ms. Whole-cell currents were divided by the capacitance of the cell, yielding current density. The pipette solution (intracellular) contained (mmol/L): KCl 134, KH2PO4 1.2, MgCl2 1.0, HEPES 5, pH 7.30, Na2ATP 5 and EGTA 5.

Take “iberiotoxin (QFTDVDCSVSKECWSVCKDLFGVDRGKCMGKKCRCYQ; ends and bridges not checked; cysteine pairing not given here; UniProt P24663 1-37, looked up) [IBTx]”: in the experiment on DASMC K+ current (IK), the “IK at potentials close to the resting EM (-30 mV)” value was “minimal inhibition” and the “whole cell K+ current (IK)” value is recorded as “significantly inhibit”. The “constriction of fresh human DA rings” value in experiment [1] is “does not”.
As for antimycin, the phenylephrine constriction result in experiment [1] (DA rings) is on record as “unaltered”. Further, the “relaxation of the O2-preconstricted DA” value in experiment [1] (normoxic DA rings) is on record as “relax”.
With `CC(C)(C)OO` [t-butyl-H2O2, t-butyl hydrogen peroxide], in the experiment on DASMC EM (current clamp), the “EM of fresh hypoxic DASMCs” value is on record as “depolarizes” and the “depolarizing response in chronically normoxic DASMCs” value was “lost”. For the same compound, the “IK in freshly dispersed DASMCs” value with DASMC K+ current (IK) (voltage clamp) was “inhibits”.
As to `C=C(C)[C@H]1Cc2c(ccc3c2O[C@@H]2COc4cc(OC)c(OC)cc4[C@@H]2C3=O)O1` [rotenone], in the experiment on DASMC mitochondria, the “ψm in DASMCs” value is “depolarizes”. For the same compound, in the experiment on DASMC K+ current (IK), the “IK acutely suppressed by O2” value is on record as “precisely restoring the current” and the “IK of DASMC from chronically normoxic DAs” value is recorded as “unresponsive”. Besides, in experiment [1], the phenylephrine constriction entry is listed as “unaltered”, the “relaxation of chronically normoxic DA rings” value was “no longer causes relaxation” and the “relaxation of the O2-preconstricted DA” value was “relax”. Also, in the experiment on human DA rings, the H2O2 production result is listed as “decreases”.
`Nc1ccncc1` [4-AP, 4-aminopyridine]: the “acute depolarization of ionically remodeled DASMCs” value in the experiment on DASMC EM (chronically normoxic, returned acutely to hypoxia, 4-AP 10 mM) is on record as “loose their ability to depolarize”. Moreover, in the experiment with DASMC K+ current (IK), the “IK at potentials close to the resting EM (-30 mV)” value was “significant decreases” and the “whole cell K+ current (IK)” value is listed as “significantly inhibit”. In addition, the “IK of DASMC from chronically normoxic DAs” value in the experiment with DASMC K+ current (IK) (returned to hypoxic conditions) was “unresponsive”. The “IK in N-S PASMCs” value in the experiment with PASMC K+ current (IK) is listed as “reversible inhibition”. The “constriction of fresh human DA rings” value in experiment [1] is given as “significantly constricts”.
